Test results taken from ChEMBL document CHEMBL1142775, “Functionalized head-to-head hairpin polyamides: synthesis, double-stranded DNA-binding activity and affinity” (Bioorg Med Chem Lett, 2005).

Target: Nucleic Acid
Assay: Dissociation constant of conjugate DNA complexes in 0.05 HEPES buffer of pH 7.3, at room temperature
Assay type: nucleic-acid assay

Compound	Kd [µM]
CCCCC(=O)NCCCCCCOP(=O)(NCCCC(=O)Nc1cc(C(=O)Nc2cc(C(=O)Nc3cc(C(=O)NCCCC(=O)Nc4cc(C(=O)Nc5cc(C(=O)Nc6cc(C(=O)NCCCN(C)C)n(C)c6)n(C)c5)n(C)c4)n(C)c3)n(C)c2)n(C)c1)NCCCC(=O)Nc1cc(C(=O)Nc2cc(C(=O)Nc3cc(C(=O)NCCCC(=O)Nc4cc(C(=O)Nc5cc(C(=O)Nc6cc(C(=O)NCCCN(C)C)n(C)c6)n(C)c5)n(C)c4)n(C)c3)n(C)c2)n(C)c1	0.018
CCCCC(=O)N(CC(=O)NCCCC(=O)Nc1cc(C(=O)Nc2cc(C(=O)Nc3cc(C(=O)NCCCC(=O)Nc4cc(C(=O)Nc5cc(C(=O)Nc6cc(C(=O)NCCCN(C)C)n(C)c6)n(C)c5)n(C)c4)n(C)c3)n(C)c2)n(C)c1)CC(=O)NCCCC(=O)Nc1cc(C(=O)Nc2cc(C(=O)Nc3cc(C(=O)NCCCC(=O)Nc4cc(C(=O)Nc5cc(C(=O)Nc6cc(C(=O)NCCCN(C)C)n(C)c6)n(C)c5)n(C)c4)n(C)c3)n(C)c2)n(C)c1	0.0043
CN(C)CCCNC(=O)c1cc(NC(=O)c2cc(NC(=O)c3cc(NC(=O)CCCNC(=O)c4cc(NC(=O)c5cc(NC(=O)c6cc(NC(=O)CCCNP(=O)(CCCCN7C(=O)c8ccccc8C7=O)NCCCC(=O)Nc7cc(C(=O)Nc8cc(C(=O)Nc9cc(C(=O)NCCCC(=O)Nc%10cc(C(=O)Nc%11cc(C(=O)Nc%12cc(C(=O)NCCCN(C)C)n(C)c%12)n(C)c%11)n(C)c%10)n(C)c9)n(C)c8)n(C)c7)cn6C)cn5C)cn4C)cn3C)cn2C)cn1C	0.034
CCCCC(=O)NCCCN(CC(=O)NCCCC(=O)Nc1cc(C(=O)Nc2cc(C(=O)Nc3cc(C(=O)NCCCC(=O)Nc4cc(C(=O)Nc5cc(C(=O)Nc6cc(C(=O)NCCCN(C)C)n(C)c6)n(C)c5)n(C)c4)n(C)c3)n(C)c2)n(C)c1)CC(=O)NCCCC(=O)Nc1cc(C(=O)Nc2cc(C(=O)Nc3cc(C(=O)NCCCC(=O)Nc4cc(C(=O)Nc5cc(C(=O)Nc6cc(C(=O)NCCCN(C)C)n(C)c6)n(C)c5)n(C)c4)n(C)c3)n(C)c2)n(C)c1	0.0048
